Results published in patent US10053435B2, “Furoxan compound, and manufacturing method for same” (NATIONAL UNIVERSITY CORPORATION KOBE UNIVERSITY, priority 2015, dated 2018).

Experiment: Nitric oxide-releasing ability (Griess reagent, with L-cysteine in phosphate buffer)
Details: for Nitric oxide-releasing rate: 0.1 mM furoxan compound, 5 mM L-cysteine, 50 mM phosphate buffer pH 7.4, 37° C., 1 hour, one molecule of furoxan taken to release one molecule of nitric oxide; for 3 - X/4 - X (NO-releasing rate of 3-halofuroxan/NO-releasing rate of 4-halofuroxan): ratio of the rates of the 3-halo and 4-halo isomers, same conditions as the releasing rate; for nitric oxide-releasing ability (in words): conclusion from Table 1
Experimental: The ability to release nitric oxide on each of (4-fluoro-3-(4-methylphenyl)furoxan, 3-fluoro-4-(4-methylphenyl)furoxan, 4-chloro-3-(4-methylphenyl)furoxan, and 3-chloro-4-(4-methylphenyl)furoxan was evaluated by the following method.
Each furoxan compound and L-cysteine were dissolved in 50 mM phosphate buffer (pH 7.4) to have a concentration of 0.1 mM and 5 mM, respectively, thereby to prepare a solution with a total volume of 6 mL. After stirring the solution at 37° C. for 1 hour, 3 mL of the solution was added to a light absorption cell and 250 μL of Griess reagent was added. After being left to stand at room temperature for 10 minutes, the absorbance was measured. The nitric oxide-releasing rate was obtained from a calibration curve prepared in advance using a sodium nitrite solution.

Cc1ccc(-c2c(Cl)no[n+]2[O-])cc1 [4-Chloro compound, 4-chloro-3-(4-methylphenyl)furoxan, reference compound]
Nitric oxide-releasing rate: 4.2%
3 - X/4 - X (NO-releasing rate of 3-halofuroxan/NO-releasing rate of 4-halofuroxan): 4.0 times

Cc1ccc(-c2no[n+]([O-])c2Cl)cc1 [3-Chloro compound, 3-chloro-4-(4-methylphenyl)furoxan, reference compound]
Nitric oxide-releasing rate: 16.7%

Cc1ccc(-c2no[n+]([O-])c2F)cc1 [3-Fluoro compound, 3-fluoro-4-(4-methylphenyl)furoxan]
Nitric oxide-releasing rate: 36.8%
nitric oxide-releasing rate compared to that of the 3-chlorofuroxan compound (3-fluoro versus 3-chloro compound, same conditions): twice or more
nitric oxide-releasing ability (in words): extremely high nitric oxide-releasing ability

Cc1ccc(-c2c(F)no[n+]2[O-])cc1 [4-Fluoro compound, 4-fluoro-3-(4-methylphenyl)furoxan]
Nitric oxide-releasing rate: 2.5%
nitric oxide-releasing ability (in words): almost no nitric oxide-releasing ability
3 - X/4 - X (NO-releasing rate of 3-halofuroxan/NO-releasing rate of 4-halofuroxan): 14.7 times
